Reference: US20240158446A1, “CYCLIC COMPOUND HAVING SELECTIVE INHIBITORY ACTION ON KRAS OVER HRAS AND NRAS” (CHUGAI SEIYAKU KABUSHIKI KAISHA, priority 2021, published 2024)
Where two headings read alike, the source gives them in different places.

How the values were obtained:
[1] = biological target: GDP-bound KRAS wild-type protein (Homo sapiens, UniProt P01116); experiment: Binding to KRAS by surface plasmon resonance (SPR), Single Cycle Kinetics; settings: GDP-bound KRAS wild-type protein, read-out: KRAS KD
[2] = tested on: human lung cancer strain NCI-H441;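 further: cell proliferation inhibition after four days measured by CellTiter-Glo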
[3] = biological target: GDP-bound HRAS wild-type protein (Homo sapiens, UniProt P01112); experiment: Binding to HRAS by surface plasmon resonance (SPR), Single Cycle Kinetics; settings: for HRAS/KRAS (ratio of KD value for HRAS to KD value for KRAS): SPR, GDP-bound HRAS wild-type protein vs GDP-bound KRAS wild-type protein
[4] = biological target: GDP-bound NRAS wild-type protein (Homo sapiens, UniProt P01111); experiment: Binding to NRAS by surface plasmon resonance (SPR), Single Cycle Kinetics; settings: for NRAS/KRAS (ratio of KD value for NRAS to KD value for KRAS): SPR, GDP-bound NRAS wild-type protein vs GDP-bound KRAS wild-type protein
[5] = SPR, Single Cycle Kinetics, 1:1 binding model

Sequence of GDP-bound HRAS wild-type protein (P01112 whole entry): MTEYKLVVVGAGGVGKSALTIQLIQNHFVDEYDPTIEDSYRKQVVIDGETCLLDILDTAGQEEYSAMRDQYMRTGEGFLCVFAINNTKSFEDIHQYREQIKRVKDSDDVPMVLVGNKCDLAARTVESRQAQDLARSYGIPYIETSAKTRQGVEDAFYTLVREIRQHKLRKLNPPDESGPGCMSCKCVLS
Sequence of GDP-bound NRAS wild-type protein (P01111 whole entry): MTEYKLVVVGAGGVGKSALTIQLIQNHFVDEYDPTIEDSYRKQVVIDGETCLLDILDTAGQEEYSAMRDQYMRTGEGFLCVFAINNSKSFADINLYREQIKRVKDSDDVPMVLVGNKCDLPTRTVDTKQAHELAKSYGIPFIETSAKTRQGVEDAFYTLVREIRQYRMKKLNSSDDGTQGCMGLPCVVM
Sequence of GDP-bound KRAS wild-type protein (P01116 whole entry): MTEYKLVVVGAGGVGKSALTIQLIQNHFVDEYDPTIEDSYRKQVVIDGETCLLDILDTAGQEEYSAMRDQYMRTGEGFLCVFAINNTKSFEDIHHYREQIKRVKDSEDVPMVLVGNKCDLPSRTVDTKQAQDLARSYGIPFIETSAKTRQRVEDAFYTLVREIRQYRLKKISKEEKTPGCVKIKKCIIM

Kd [1, 5] [nM]	IC50 [2] [nM]	Kd ([1]; SPR, Single Cycle Kinetics) [nM]	Kd ([1]; SPR Single Cycle Kinetics, 1:1 binding model) [nM]	SMILES	HRAS/KRAS (ratio of KD value for HRAS to KD value for KRAS) ([3]; KD ratio class)	NRAS/KRAS (ratio of KD value for NRAS to KD value for KRAS) ([4]; KD ratio class)	HRAS/KRAS (ratio of KD value for HRAS to KD value for KRAS) [3]	NRAS/KRAS (ratio of KD value for NRAS to KD value for KRAS) [4]	HRAS/KRAS (ratio of KD value with respect to GDP-bound HRAS wild-type protein to KD value with respect to KRAS) ([3]; SPR KD ratio HRAS/KRAS, class symbols)	NRAS/KRAS (ratio of KD value with respect to GDP-bound NRAS wild-type protein to KD value with respect to KRAS) ([4]; SPR KD ratio NRAS/KRAS, class symbols)
	109	2		C#CCN1CC(=O)N(C)[C@H]2C/C=C\CCN(C2=O)[C@@H](Cc2ccc(C)cc2)C(=O)N(C)CC(=O)N[C@@H](CCc2cc(F)c(C(F)(F)F)c(F)c2)C(=O)N2C[C@H](OCC)C[C@H]2C(=O)NC2(CC(C)(C)C2)C(=O)N(C)[C@@H](C2CCCC2)C(=O)N(C)[C@H](C(=O)N(C)C)CC(=O)N(C)[C@@H](CCC)C(=O)N[C@@H](CC(C)C)C1=O [PP2512]			A (a compound having 10 or more and less than 20 is denoted as A)	A (a compound having 10 or more and less than 20 is denoted as A)		
	97		2.5	CCC[C@H]1C(=O)N[C@@H]([C@@H](C)CC)C(=O)N2CCC[C@H]2C(=O)N(C)[C@H]2C/C=C\CCN(C2=O)[C@@H](Cc2ccc(C)cc2)C(=O)N(C)CC(=O)N[C@@H](CCc2ccc(Cl)c(Cl)c2)C(=O)N2C[C@H](OCC)C[C@H]2C(=O)NC2(CC(C)(C)C2)C(=O)N(C)[C@@H](C(CC)CC)C(=O)N(C)[C@H](C(=O)N(C)C)CC(=O)N1C [PP2638]					A (a compound having 10 or more and less than 20 is denoted as A)	AA (a compound having 20 or more is denoted as AA)

Second part, the compound before the results:

SMILES	Kd [1, 5] [nM]	IC50 [2] [nM]	Kd ([1]; SPR, Single Cycle Kinetics) [nM]	Kd ([1]; SPR Single Cycle Kinetics, 1:1 binding model) [nM]	HRAS/KRAS (ratio of KD value for HRAS to KD value for KRAS) ([3]; KD ratio class)	NRAS/KRAS (ratio of KD value for NRAS to KD value for KRAS) ([4]; KD ratio class)	HRAS/KRAS (ratio of KD value for HRAS to KD value for KRAS) [3]	NRAS/KRAS (ratio of KD value for NRAS to KD value for KRAS) [4]	HRAS/KRAS (ratio of KD value with respect to GDP-bound HRAS wild-type protein to KD value with respect to KRAS) ([3]; SPR KD ratio HRAS/KRAS, class symbols)	NRAS/KRAS (ratio of KD value with respect to GDP-bound NRAS wild-type protein to KD value with respect to KRAS) ([4]; SPR KD ratio NRAS/KRAS, class symbols)
CCO[C@@H]1C[C@H]2C(=O)NC3(CCCC3)C(=O)N(C)[C@@H](C(CC)CC)C(=O)N(C)[C@H](C(=O)N3CCCC3)CC(=O)N(C)[C@@H](C)C(=O)N[C@@H]([C@@H](C)CC)C(=O)N(C)CC(=O)N(C)[C@H]3C/C=C\CCN(C3=O)[C@@H](CC3CCC(F)(F)CC3)C(=O)N(C)CC(=O)N[C@@H](CCc3cc(F)c(C(F)(F)F)c(F)c3)C(=O)N2C1 [PP1437]	0.61	220			A (a compound having 10 or more and less than 20 is denoted as A)	A (a compound having 10 or more and less than 20 is denoted as A)				
CCO[C@@H]1C[C@H]2C(=O)NC3(CCC3)C(=O)N(C)[C@@H](C(CC)CC)C(=O)N(C)[C@H](C(=O)N3CCOCC3)CC(=O)N(C)[C@@H](CC)C(=O)N[C@@H]([C@@H](C)CC)C(=O)N(C)CC(=O)N(C)[C@H]3C/C=C\CCN(C3=O)[C@@H](Cc3ccc(C(F)(F)F)cc3)C(=O)N(C)CC(=O)N[C@@H](CCc3cc(F)c(C(F)(F)F)c(F)c3)C(=O)N2C1 [PP1286]	0.65	58.8			A (a compound having 10 or more and less than 20 is denoted as A)	AA (a compound having 20 or more is denoted as AA)				
CCO[C@@H]1C[C@H]2C(=O)NC3(CCCC3)C(=O)N(C)[C@@H](C3CCCC3)C(=O)N(C)[C@H](C(=O)N3CCOCC3)CC(=O)N(C)[C@@H](CC)C(=O)N[C@@H]([C@@H](C)CC)C(=O)N(C)CC(=O)N(C)[C@H]3CC[C@@H](C)CN(C3=O)[C@@H](Cc3ccc(C(F)(F)F)cc3)C(=O)N(C)CC(=O)N[C@@H](CCc3ccc(C(F)(F)F)c(Cl)c3)C(=O)N2C1 [PP1377]	0.087	5.8			B (a compound having 3 or more and less than 10 is denoted as B)	B (a compound having 3 or more and less than 10 is denoted as B)				
CCO[C@@H]1C[C@H]2C(=O)NC3(CCC3)C(=O)N(C)[C@@H](C(CC)CC)C(=O)N(C)[C@H](C(=O)N(C)C)CC(=O)N(C)[C@@H](CC3CC3)C(=O)N[C@@H]([C@@H](C)CC)C(=O)N(C)CC(=O)N(C)[C@H]3C/C=C\CCN(C3=O)[C@@H](Cc3ccc(C(F)(F)F)cc3)C(=O)N(C)CC(=O)N[C@@H](CCc3ccc4sccc4c3)C(=O)N2C1 [PP1227]	1.6	128			A (a compound having 10 or more and less than 20 is denoted as A)	A (a compound having 10 or more and less than 20 is denoted as A)				
